These results are taken from ChEMBL document CHEMBL1131398, “First synthesis of alternating SATE-phosphotriester/phosphodiester prooligonucleotides on solid support” (Bioorg Med Chem Lett, 1998).

In general, half-life refers to the time in which the quantity being followed falls by half.

The nature of data set [1]: Lipophilicity of compound evaluated by HPLC retention time on reverse phase C18 column. In kind it is physicochemical.
Data set [2] in a line: Half-life in the presence of pig liver esterase(PLE) was evaluated. Format: ADME, tissue-based, Sus scrofa.
Data set [3] can be described thus: Half-life in the presence of total cell extract(TCE) was evaluated. Format: ADME.
Data set [4] in a line: Half-life in the presence of pig liver esterase(PLE) was evaluated; […]. Format: ADME, Sus scrofa. The conditions noted are these: in vitro.

`CO[C@@H]1[C@H](OP(=O)(O)O)[C@@H](COP(=O)(O)O[C@H]2[C@@H](OC)[C@H](n3ccc(=O)[nH]c3=O)O[C@@H]2COP(=O)(O)O[C@H]2[C@@H](OC)[C@H](n3ccc(=O)[nH]c3=O)O[C@@H]2COP(=O)(OCCSC(=O)C(C)(C)C)O[C@H]2C[C@H](n3cc(C)c(=O)[nH]c3=O)O[C@@H]2COP(=O)(OCCSC(=O)C(C)(C)C)O[C@H]2C[C@H](n3cc(C)c(=O)[nH]c3=O)O[C@@H]2COP(=O)(OCCSC(=O)C(C)(C)C)O[C@H]2C[C@H](n3cc(C)c(=O)[nH]c3=O)O[C@@H]2COP(=O)(OCCSC(=O)C(C)(C)C)O[C@H]2C[C@H](n3cc(C)c(=O)[nH]c3=O)O[C@@H]2COP(=O)(OCCSC(=O)C(C)(C)C)O[C@H]2C[C@H](n3cc(C)c(=O)[nH]c3=O)O[C@@H]2COP(=O)(OCCSC(=O)C(C)(C)C)O[C@H]2C[C@H](n3cc(C)c(=O)[nH]c3=O)O[C@@H]2COP(=O)(O)O[C@H]2[C@@H](OC)[C@H](n3cc(C)c(=O)[nH]c3=O)O[C@@H]2COP(=O)(O)O[C@H]2[C@@H](OC)[C@H](n3ccc(=O)[nH]c3=O)O[C@@H]2COP(=O)(O)O[C@H]2[C@@H](OC)[C@H](n3ccc(=O)[nH]c3=O)O[C@@H]2CO)O[C@H]1n1ccc(=O)[nH]c1=O` (stereo not given in full) had a Retention time in data set [1] of 54.7 min. Moreover, the figures for the half-life in data set [2] and in data set [3] were 5 min and 15 min, respectively.

In turn, `Cc1cn([C@H]2C[C@H](OP(=O)(O)S)[C@@H](COP(=O)(OCCSC(=O)C(C)(C)C)O[C@H]3C[C@H](n4cc(C)c(=O)[nH]c4=O)O[C@@H]3COP(=O)(S)O[C@H]3C[C@H](n4cc(C)c(=O)[nH]c4=O)O[C@@H]3COP(=O)(OCCSC(=O)C(C)(C)C)O[C@H]3C[C@H](n4cc(C)c(=O)[nH]c4=O)O[C@@H]3COP(=O)(S)O[C@H]3C[C@H](n4cc(C)c(=O)[nH]c4=O)O[C@@H]3COP(=O)(OCCSC(=O)C(C)(C)C)O[C@H]3C[C@H](n4cc(C)c(=O)[nH]c4=O)O[C@@H]3COP(=O)(S)O[C@H]3C[C@H](n4cc(C)c(=O)[nH]c4=O)O[C@@H]3COP(=O)(OCCSC(=O)C(C)(C)C)O[C@H]3C[C@H](n4cc(C)c(=O)[nH]c4=O)O[C@@H]3COP(=O)(S)O[C@H]3C[C@H](n4cc(C)c(=O)[nH]c4=O)O[C@@H]3COP(=O)(OCCSC(=O)C(C)(C)C)O[C@H]3C[C@H](n4cc(C)c(=O)[nH]c4=O)O[C@@H]3COP(=O)(S)O[C@H]3C[C@H](n4cc(C)c(=O)[nH]c4=O)O[C@@H]3COP(=O)(OCCSC(=O)C(C)(C)C)O[C@H]3C[C@H](n4cc(C)c(=O)[nH]c4=O)O[C@@H]3CO)O2)c(=O)[nH]c1=O` (stereo not given in full) came in with a Retention time in data set [1] of 51.9 min. The T1/2 entry in data set [4] was “Stable”. In addition, the half-life in data set [3] was 180 min.

As for `Cc1cn([C@H]2C[C@H](OP(=O)(O)O)[C@@H](COP(=O)(OCCSC(=O)C(C)(C)C)O[C@H]3C[C@H](n4cc(C)c(=O)[nH]c4=O)O[C@@H]3COP(=O)(O)O[C@H]3C[C@H](n4cc(C)c(=O)[nH]c4=O)O[C@@H]3COP(=O)(OCCSC(=O)C(C)(C)C)O[C@H]3C[C@H](n4cc(C)c(=O)[nH]c4=O)O[C@@H]3COP(=O)(O)O[C@H]3C[C@H](n4cc(C)c(=O)[nH]c4=O)O[C@@H]3COP(=O)(OCCSC(=O)C(C)(C)C)O[C@H]3C[C@H](n4cc(C)c(=O)[nH]c4=O)O[C@@H]3COP(=O)(O)O[C@H]3C[C@H](n4cc(C)c(=O)[nH]c4=O)O[C@@H]3COP(=O)(OCCSC(=O)C(C)(C)C)O[C@H]3C[C@H](n4cc(C)c(=O)[nH]c4=O)O[C@@H]3COP(=O)(O)O[C@H]3C[C@H](n4cc(C)c(=O)[nH]c4=O)O[C@@H]3COP(=O)(OCCSC(=O)C(C)(C)C)O[C@H]3C[C@H](n4cc(C)c(=O)[nH]c4=O)O[C@@H]3COP(=O)(O)O[C@H]3C[C@H](n4cc(C)c(=O)[nH]c4=O)O[C@@H]3COP(=O)(OCCSC(=O)C(C)(C)C)O[C@H]3C[C@H](n4cc(C)c(=O)[nH]c4=O)O[C@@H]3CO)O2)c(=O)[nH]c1=O` (stereo not given in full), the Retention time in data set [1] is on record as 48.8 min. In data set [4], the T1/2 entry is “Stable”. Besides, the half-life in data set [3] was 60 min.

For `Cc1cn([C@H]2C[C@H](OP(=O)(O)OC[C@H]3O[C@@H](n4cc(C)c(=O)[nH]c4=O)C[C@@H]3OP(=S)(OCCSC(=O)C(C)(C)C)OC[C@H]3O[C@@H](n4cc(C)c(=O)[nH]c4=O)C[C@@H]3OP(=O)(O)OC[C@H]3O[C@@H](n4cc(C)c(=O)[nH]c4=O)C[C@@H]3OP(=S)(OCCSC(=O)C(C)(C)C)OC[C@H]3O[C@@H](n4cc(C)c(=O)[nH]c4=O)C[C@@H]3OP(=O)(O)OC[C@H]3O[C@@H](n4cc(C)c(=O)[nH]c4=O)C[C@@H]3OP(=S)(OCCSC(=O)C(C)(C)C)OC[C@H]3O[C@@H](n4cc(C)c(=O)[nH]c4=O)C[C@@H]3OP(=O)(O)OC[C@H]3O[C@@H](n4cc(C)c(=O)[nH]c4=O)C[C@@H]3OP(=S)(OCCSC(=O)C(C)(C)C)OC[C@H]3O[C@@H](n4cc(C)c(=O)[nH]c4=O)C[C@@H]3OP(=O)(O)OC[C@H]3O[C@@H](n4cc(C)c(=O)[nH]c4=O)C[C@@H]3OP(=S)(OCCSC(=O)C(C)(C)C)OC[C@H]3O[C@@H](n4cc(C)c(=O)[nH]c4=O)C[C@@H]3OP(=O)(O)OC[C@H]3O[C@@H](n4cc(C)c(=O)[nH]c4=O)C[C@@H]3OP(O)(=S)OCCSC(=O)C(C)(C)C)[C@@H](CO)O2)c(=O)[nH]c1=O` (stereo not given in full), the Retention time in data set [1] is reported as 51.7 min. In addition, in data set [4], the T1/2 entry is given as “Stable”. The half-life in data set [3] is 150 min.

In turn, `Cc1cn([C@H]2C[C@H](OP(=O)(O)S)[C@@H](COP(=S)(OCCSC(=O)C(C)(C)C)O[C@H]3C[C@H](n4cc(C)c(=O)[nH]c4=O)O[C@@H]3COP(=O)(S)O[C@H]3C[C@H](n4cc(C)c(=O)[nH]c4=O)O[C@@H]3COP(=S)(OCCSC(=O)C(C)(C)C)O[C@H]3C[C@H](n4cc(C)c(=O)[nH]c4=O)O[C@@H]3COP(=O)(S)O[C@H]3C[C@H](n4cc(C)c(=O)[nH]c4=O)O[C@@H]3COP(=S)(OCCSC(=O)C(C)(C)C)O[C@H]3C[C@H](n4cc(C)c(=O)[nH]c4=O)O[C@@H]3COP(=O)(S)O[C@H]3C[C@H](n4cc(C)c(=O)[nH]c4=O)O[C@@H]3COP(=S)(OCCSC(=O)C(C)(C)C)O[C@H]3C[C@H](n4cc(C)c(=O)[nH]c4=O)O[C@@H]3COP(=O)(S)O[C@H]3C[C@H](n4cc(C)c(=O)[nH]c4=O)O[C@@H]3COP(=S)(OCCSC(=O)C(C)(C)C)O[C@H]3C[C@H](n4cc(C)c(=O)[nH]c4=O)O[C@@H]3COP(=O)(S)O[C@H]3C[C@H](n4cc(C)c(=O)[nH]c4=O)O[C@@H]3COP(=S)(OCCSC(=O)C(C)(C)C)O[C@H]3C[C@H](n4cc(C)c(=O)[nH]c4=O)O[C@@H]3CO)O2)c(=O)[nH]c1=O` (stereo not given in full) came in with a Retention time in data set [1] of 58.4 min. Also, the T1/2 result in data set [4] is reported as “Stable”. Also, the half-life in data set [3] was 1020 min.
